According to paper PMC8373216, “Development and Preclinical Evaluation of New Inhaled Lipoglycopeptides for the Treatment of Persistent Pulmonary Methicillin-Resistant Staphylococcus aureus Infections” (Antimicrobial Agents and Chemotherapy, 2021):
In brackets after ≈: the same amount, converted by molar mass. Read-outs that look alike come from different tables or passages of the source.

Legend:
[1] = test system: MRSA ATCC BAA 1556 (USA300); assay: In-house broth microdilution MIC screening; format: cell-based, Staphylococcus aureus; details: for MIC: Staphylococcus aureus, read-out: MIC Value, MRSA ATCC BAA 1556
MSSA ATCC 29213 = assay: In-house broth microdilution MIC screening; format: cell-based; details: Staphylococcus aureus, read-out: MIC Value, MSSA ATCC 29213
[2] = Single-dose nebulized nose-only inhalation PK in healthy rats; format: in vivo, rat; details: male, Sprague Dawley, rat, in vivo
Experimental: Rats were acclimated in the study facility for approximately 1 week prior to study start. Ten or eleven rats per cohort were loaded into the chamber at the time of dosing. […] An additional airflow set to 6 liters/min was admixed with the nebulizer output to further direct the test articles to the animals. […] The remaining port on the chamber was fit with an aerosol sampling filter for dose determination over a 5 min sampling period. The average dose delivered to the nose of each animal was calculated using an algorithm that was previously described ([49]). […] Animals were euthanized for collection of whole lungs and plasma at time points ranging from immediate postdose (IPD; approximately 30 min after dosing for nebulization) to 168 h postdose (7 days). Drugs were extracted from tissues using customized protein precipitation methods with an appropriate internal standard for each compound and transferred for analysis by LC-MS/MS (Sciex API4500 or API6500+ mass spectrometer [Sciex, Framingham, MA]). GraphPad Prism (La Jolla, CA) was used for statistical analyses and data plotting. […] The data were applied to a noncompartmental analysis after extravascular dosing input and fit to a linear up/log down model. Statistical analysis of in vitro intracellular and biofilm activity was based on a two-way ANOVA with a Bonferroni post test. In vivo statistical analysis was based on the Kolmogorov-Smirnov test.

[3] = MRSA and MSSA isolates of Table 1

For `CCCCCCCCCCCCCCNC(=O)CNC1(C)CC(OC2C(Oc3c4cc5cc3Oc3ccc(cc3Cl)C(O)C3NC(=O)C(NC(=O)C5NC(=O)C(CC(N)=O)NC(=O)C(NC(=O)C(CC(C)C)NC)C(O)c5ccc(c(Cl)c5)O4)c4ccc(O)c(c4)-c4c(O)cc(O)cc4C(C(=O)O)NC3=O)OC(CO)C(O)C2O)OC(C)C1O` (centres unmarked) [RV130], the MIC ([1]; broth microdilution) was 0.25 µg/mL (≈ 0.147 µM) and the MIC (MSSA ATCC 29213; broth microdilution) was 0.125 µg/mL (≈ 0.0734 µM).

With `CCCCCCCCCCCCNC(=O)CNC1(C)CC(OC2C(Oc3c4cc5cc3Oc3ccc(cc3Cl)C(O)C3NC(=O)C(NC(=O)C5NC(=O)C(CC(N)=O)NC(=O)C(NC(=O)C(CC(C)C)NC)C(O)c5ccc(c(Cl)c5)O4)c4ccc(O)c(c4)-c4c(O)cc(O)cc4C(C(=O)O)NC3=O)OC(CO)C(O)C2O)OC(C)C1O` (centres unmarked) [RV95] the “MIC potency, fold less potent than RV40” value [1, 3] was ~2 fold, the “MIC potency, fold more potent than telavancin” value [1, 3] was ~2 fold and the “MIC potency, fold more potent than vancomycin” value [1, 3] was “approximately 30 fold”. The MIC ([1]; broth microdilution) was 0.031 µg/mL (≈ 0.0185 µM) and the MIC (MSSA ATCC 29213; broth microdilution) was 0.031 µg/mL (≈ 0.0185 µM).

In the case of `CCCCCCCC(=O)NCCNC1(C)CC(OC2C(Oc3c4cc5cc3Oc3ccc(cc3Cl)C(O)C3NC(=O)C(NC(=O)C5NC(=O)C(CC(N)=O)NC(=O)C(NC(=O)C(CC(C)C)NC)C(O)c5ccc(c(Cl)c5)O4)c4ccc(O)c(c4)-c4c(O)cc(O)cc4C(C(=O)O)NC3=O)OC(CO)C(O)C2O)OC(C)C1O` (centres unmarked) [RV93], the MIC ([1]; broth microdilution) is reported as 0.125 µg/mL (≈ 0.0772 µM) and the MIC (MSSA ATCC 29213; broth microdilution) is reported as 0.125 µg/mL (≈ 0.0772 µM).

`CCCCCCCCCCCC(=O)OCCNC1(C)CC(OC2C(Oc3c4cc5cc3Oc3ccc(cc3Cl)C(O)C3NC(=O)C(NC(=O)C5NC(=O)C(CC(N)=O)NC(=O)C(NC(=O)C(CC(C)C)NC)C(O)c5ccc(c(Cl)c5)O4)c4ccc(O)c(c4)-c4c(O)cc(O)cc4C(C(=O)O)NC3=O)OC(CO)C(O)C2O)OC(C)C1O` (centres unmarked) [RV65] showed an MIC ([1]; broth microdilution) of 0.094 µg/mL (≈ 0.0561 µM) and an MIC (MSSA ATCC 29213; broth microdilution) of 0.063 µg/mL (≈ 0.0376 µM).

`CCCCCCCCCCCCCCCCNC(=O)CNC1(C)CC(OC2C(Oc3c4cc5cc3Oc3ccc(cc3Cl)C(O)C3NC(=O)C(NC(=O)C5NC(=O)C(CC(N)=O)NC(=O)C(NC(=O)C(CC(C)C)NC)C(O)c5ccc(c(Cl)c5)O4)c4ccc(O)c(c4)-c4c(O)cc(O)cc4C(C(=O)O)NC3=O)OC(CO)C(O)C2O)OC(C)C1O` (centres unmarked) [RV131] gave an MIC ([1]; broth microdilution) of 4 µg/mL (≈ 2.31 µM) and an MIC (MSSA ATCC 29213; broth microdilution) of 4 µg/mL (≈ 2.31 µM).

Molecule `CCCCCCCCCCCCCCOC(=O)CNC1(C)CC(OC2C(Oc3c4cc5cc3Oc3ccc(cc3Cl)C(O)C3NC(=O)C(NC(=O)C5NC(=O)C(CC(N)=O)NC(=O)C(NC(=O)C(CC(C)C)NC)C(O)c5ccc(c(Cl)c5)O4)c4ccc(O)c(c4)-c4c(O)cc(O)cc4C(C(=O)O)NC3=O)OC(CO)C(O)C2O)OC(C)C1O` (centres unmarked) [RV127] has an MIC ([1]; broth microdilution) of 4 µg/mL (≈ 2.35 µM) and an MIC (MSSA ATCC 29213; broth microdilution) of 4 µg/mL (≈ 2.35 µM).

For `CCCCCCCCCCCCCCCC(=O)NCCNC1(C)CC(OC2C(Oc3c4cc5cc3Oc3ccc(cc3Cl)C(O)C3NC(=O)C(NC(=O)C5NC(=O)C(CC(N)=O)NC(=O)C(NC(=O)C(CC(C)C)NC)C(O)c5ccc(c(Cl)c5)O4)c4ccc(O)c(c4)-c4c(O)cc(O)cc4C(C(=O)O)NC3=O)OC(CO)C(O)C2O)OC(C)C1O` (centres unmarked) [RV91], the MIC ([1]; broth microdilution) was 0.25 µg/mL (≈ 0.144 µM) and the MIC (MSSA ATCC 29213; broth microdilution) was 0.188 µg/mL (≈ 0.109 µM).

With `CCCCCCCCOC(=O)CNC1(C)CC(OC2C(Oc3c4cc5cc3Oc3ccc(cc3Cl)C(O)C3NC(=O)C(NC(=O)C5NC(=O)C(CC(N)=O)NC(=O)C(NC(=O)C(CC(C)C)NC)C(O)c5ccc(c(Cl)c5)O4)c4ccc(O)c(c4)-c4c(O)cc(O)cc4C(C(=O)O)NC3=O)OC(CO)C(O)C2O)OC(C)C1O` (centres unmarked) [RV124] the MIC ([1]; broth microdilution) was 0.75 µg/mL (≈ 0.463 µM) and the MIC (MSSA ATCC 29213; broth microdilution) was 0.5 µg/mL (≈ 0.309 µM).

Molecule `CCCCCCCC(=O)OCCNC1(C)CC(OC2C(Oc3c4cc5cc3Oc3ccc(cc3Cl)C(O)C3NC(=O)C(NC(=O)C5NC(=O)C(CC(N)=O)NC(=O)C(NC(=O)C(CC(C)C)NC)C(O)c5ccc(c(Cl)c5)O4)c4ccc(O)c(c4)-c4c(O)cc(O)cc4C(C(=O)O)NC3=O)OC(CO)C(O)C2O)OC(C)C1O` (centres unmarked) [RV90] has an MIC [1] of 0.25 µg/mL (≈ 0.154 µM) and an MIC (MSSA ATCC 29213) of 0.25 µg/mL (≈ 0.154 µM).

`CCCCCCCCCC(=O)OCCNC1(C)CC(OC2C(Oc3c4cc5cc3Oc3ccc(cc3Cl)C(O)C3NC(=O)C(NC(=O)C5NC(=O)C(CC(N)=O)NC(=O)C(NC(=O)C(CC(C)C)NC)C(O)c5ccc(c(Cl)c5)O4)c4ccc(O)c(c4)-c4c(O)cc(O)cc4C(C(=O)O)NC3=O)OC(CO)C(O)C2O)OC(C)C1O` (centres unmarked) [RV54] gave an MIC ([1]; broth microdilution) of 0.167 µg/mL (≈ 0.101 µM) and an MIC (MSSA ATCC 29213; broth microdilution) of 0.146 µg/mL (≈ 0.0886 µM).

For `CNC(CC(C)C)C(=O)NC1C(=O)NC(CC(N)=O)C(=O)NC2C(=O)NC3C(=O)NC(C(=O)NC(C(=O)O)c4cc(O)cc(O)c4-c4cc3ccc4O)C(O)c3ccc(c(Cl)c3)Oc3cc2cc(c3OC2OC(CO)C(O)C(O)C2OC2CC(C)(NCCN)C(O)C(C)O2)Oc2ccc(cc2Cl)C1O` (centres unmarked) [RV82], the MIC ([1]; broth microdilution) was 2 µg/mL (≈ 1.34 µM), the MIC (MSSA ATCC 29213; broth microdilution) was 2 µg/mL (≈ 1.34 µM) and the “Lung retention of primary hydrolysis by-product” value [2] was “sustained in the lung throughout the course of the 120 h experiments”.
